Data reported in patent publication US7271165B2, “Rifamycin analogs and uses thereof” (priority 2003, dated 2007).
Values after ≈ are worked out from the molar mass of the structure shown.

Assays:
[1] = system: E. faecalis; assay: MIC assay, E. faecalis; type: cell-based, Enterococcus faecalis
[2] = system: S. aureus; assay: MIC assay, S. aureus; type: cell-based, Staphylococcus aureus
[3] = system: E coli; assay: MIC assay, E coli; type: cell-based
[4] = system: H. flu; type: cell-based, H. influenza; conditions: H. flu
[5] = system: S. pneumo.; assay: MIC assay, S. pneumo.; type: cell-based, Streptococcus pneumoniae

Compound: CO[C@H]1/C=C/OC2(C)Oc3c(C)c(O)c4c(=O)c(c5oc6cc(N7CC8CCC7CN8)cc(O)c6nc-5c4c3C2=O)NC(=O)/C(C)=C\C=C\[C@H](C)[C@H](O)[C@@H](C)[C@@H](O)[C@@H](C)[C@H](OC(C)=O)[C@@H]1C (stereo partly shown)
- melting point: > 300 °C

Compound: CO[C@H]1/C=C/OC2(C)Oc3c(C)c(O)c4c(=O)c(c5oc6cc(N7CC8CC7CN8)cc(O)c6nc-5c4c3C2=O)NC(=O)/C(C)=C\C=C\[C@H](C)[C@H](O)[C@@H](C)[C@@H](O)[C@@H](C)[C@H](OC(C)=O)[C@@H]1C (stereo partly shown)
- melting point: > 330 °C

Compound: CO[C@H]1/C=C/O[C@@]2(C)Oc3c(C)c(O)c4c(=O)c(c5oc6cc(N7CCC(N(C)C)CC7)cc(O)c6nc-5c4c3C2=O)NC(=O)/C(C)=C\C=C\[C@H](C)[C@H](O)[C@@H](C)[C@@H](O)[C@@H](C)[C@H](O)[C@@H]1C [Compound 18, 25-O-deacetyl-3′-hydroxy-5′-(4-N,N dimethylamino-1-piperidinyl)benzoxazinorifamycin]
- MIC (μg/mL) E. faecalis [1]: 0.12 µg/mL (≈ 0.136 µM)
- MIC (μg/mL) S. aureus [2]: 0.004 µg/mL (≈ 0.00452 µM)
- MIC (μg/mL) E coli [3]: 4 µg/mL (≈ 4.52 µM)
- MIC (μg/mL) H. flu [4]: 0.5 µg/mL (≈ 0.565 µM)
- MIC (μg/mL) S. pneumo. [5]: 0.00012 µg/mL (≈ 0.000136 µM)

Compound: COC1C=COC2(C)Oc3c(C)c(O)c4c(=O)c(c5sc6cc(N7CCN(C)CC7)ccc6nc-5c4c3C2=O)NC(=O)C(C)=CC=CC(C)C(O)C(C)C(O)C(C)C(O)C1C (stereo not shown) [Compound 101]
- MIC (μg/mL) E. faecalis [1]: 0.12 µg/mL (≈ 0.14 µM)
- MIC (μg/mL) S. aureus [2]: 0.002 µg/mL (≈ 0.00233 µM)
- MIC (μg/mL) E coli [3]: 2 µg/mL (≈ 2.33 µM)
- MIC (μg/mL) H. flu [4]: 0.12 µg/mL (≈ 0.14 µM)
- MIC (μg/mL) S. pneumo. [5]: 0.00012 µg/mL (≈ 0.00014 µM)

Compound: COC1C=COC2(C)Oc3c(C)c(O)c4c(=O)c(c5oc6cc(N7CCC(c8ccccc8)CC7)cc(O)c6nc-5c4c3C2=O)NC(=O)C(C)=CC=CC(C)C(O)C(C)C(O)C(C)C(OC(C)=O)C1C (stereo not shown) [Compound 57, 3′-hydroxy-5′-[4-phenyl-1-piperidinyl]benzoxazinorifamycin]
- MIC (μg/mL) E. faecalis [1]: 2 µg/mL (≈ 2.08 µM)
- MIC (μg/mL) S. aureus [2]: 0.008 µg/mL (≈ 0.00833 µM)
- MIC (μg/mL) E coli [3]: 8 µg/mL (≈ 8.33 µM)
- MIC (μg/mL) H. flu [4]: 0.5 µg/mL (≈ 0.521 µM)
- MIC (μg/mL) S. pneumo. [5]: 0.0005 µg/mL (≈ 0.000521 µM)

Compound: COC1C=COC2(C)Oc3c(C)c(O)c4c(=O)c(c5oc6cc(N7CCC(c8ccccc8)CC7)cc(O)c6nc-5c4c3C2=O)NC(=O)C(C)=CC=CC(C)C(O)C(C)C(O)C(C)C(O)C1C (stereo not shown) [Compound 62, 25-O-deacetyl-3′-hydroxy-5′-[4-phenyl-1-piperidinyl]benzoxazinorifamycin]
- MIC (μg/mL) E. faecalis [1]: 8 µg/mL (≈ 8.71 µM)
- MIC (μg/mL) S. aureus [2]: 0.015 µg/mL (≈ 0.0163 µM)
- MIC (μg/mL) E coli [3]: >8 µg/mL
- MIC (μg/mL) H. flu [4]: 0.5 µg/mL (≈ 0.545 µM)
- MIC (μg/mL) S. pneumo. [5]: 0.008 µg/mL (≈ 0.00871 µM)

Compound: COC1C=COC2(C)Oc3c(C)c(O)c4c(=O)c(c5oc6cc(N7CCCC7)c(F)cc6nc-5c4c3C2=O)NC(=O)C(C)=CC=CC(C)C(O)C(C)C(O)C(C)C(O)C1C (stereo not shown) [Compound 120]
- MIC (μg/mL) E. faecalis [1]: 1 µg/mL (≈ 1.2 µM)
- MIC (μg/mL) S. aureus [2]: 0.03 µg/mL (≈ 0.0361 µM)
- MIC (μg/mL) E coli [3]: 8 µg/mL (≈ 9.64 µM)
- MIC (μg/mL) H. flu [4]: 0.12 µg/mL (≈ 0.145 µM)
- MIC (μg/mL) S. pneumo. [5]: 0.06 µg/mL (≈ 0.0723 µM)

Compound: CO[C@H]1/C=C/O[C@@]2(C)Oc3c(C)c(O)c4c(=O)c(c5oc6cc(N7C[C@H]8CCCN[C@H]8C7)cc(O)c6nc-5c4c3C2=O)NC(=O)/C(C)=C\C=C\[C@H](C)[C@H](O)[C@@H](C)[C@@H](O)[C@@H](C)[C@H](O)[C@@H]1C [Compound 15, 25-O-deacetyl-3′-hydroxy-5′-[(4aR,7aR)-octahydro-6H-pyrrolo[3,4-b]pyridin-6-yl]benzoxazinorifamycin]
- MIC (μg/mL) E. faecalis [1]: 0.25 µg/mL (≈ 0.283 µM)
- MIC (μg/mL) S. aureus [2]: 0.03 µg/mL (≈ 0.034 µM)
- MIC (μg/mL) E coli [3]: >8 µg/mL
- MIC (μg/mL) H. flu [4]: 1 µg/mL (≈ 1.13 µM)
- MIC (μg/mL) S. pneumo. [5]: 0.002 µg/mL (≈ 0.00226 µM)

Compound: COC1C=COC2(C)Oc3c(C)c(O)c4c(=O)c(c5oc6cc(N7CCN(Cc8ccccc8)CC7)cc(O)c6nc-5c4c3C2=O)NC(=O)C(C)=CC=CC(C)C(O)C(C)C(O)C(C)C(O)C1C (stereo not shown) [Compound 86]
- MIC (μg/mL) E. faecalis [1]: >8 µg/mL
- MIC (μg/mL) S. aureus [2]: 0.03 µg/mL (≈ 0.0322 µM)
- MIC (μg/mL) E coli [3]: >8 µg/mL
- MIC (μg/mL) H. flu [4]: 8 µg/mL (≈ 8.57 µM)
- MIC (μg/mL) S. pneumo. [5]: 0.001 µg/mL (≈ 0.00107 µM)

Compound: COC1C=COC2(C)Oc3c(C)c(O)c4c(=O)c(c5oc6cc(N7CCC(F)CC7)ccc6nc-5c4c3C2=O)NC(=O)C(C)=CC=CC(C)C(O)C(C)C(O)C(C)C(O)C1C (stereo not shown) [Compound 111]
- MIC (μg/mL) E. faecalis [1]: 0.5 µg/mL (≈ 0.592 µM)
- MIC (μg/mL) S. aureus [2]: 0.03 µg/mL (≈ 0.0355 µM)
- MIC (μg/mL) E coli [3]: 8 µg/mL (≈ 9.48 µM)
- MIC (μg/mL) H. flu [4]: 0.12 µg/mL (≈ 0.142 µM)
- MIC (μg/mL) S. pneumo. [5]: 0.008 µg/mL (≈ 0.00948 µM)

Compound: CCOc1c(N2CCN(CCOC)CC2)ccc2nc3c4c5c6c(C)c(O)c4c(=O)c(c-3oc12)NC(=O)C(C)=CC=CC(C)C(O)C(C)C(O)C(C)C(O)C(C)C(OC)C=COC(C)(O6)C5=O (stereo not shown) [Compound 93]
- MIC (μg/mL) E. faecalis [1]: 1 µg/mL (≈ 1.08 µM)
- MIC (μg/mL) S. aureus [2]: 0.015 µg/mL (≈ 0.0161 µM)
- MIC (μg/mL) E coli [3]: >8 µg/mL
- MIC (μg/mL) H. flu [4]: 0.5 µg/mL (≈ 0.538 µM)
- MIC (μg/mL) S. pneumo. [5]: 0.005 µg/mL (≈ 0.00538 µM)

Compound: COC1C=COC2(C)Oc3c(C)c(O)c4c(=O)c(c5oc6cc(N(C)CC(C)C)cc(O)c6nc-5c4c3C2=O)NC(=O)C(C)=CC=CC(C)C(O)C(C)C(O)C(C)C(O)C1C (stereo not shown) [Compound 125]
- MIC (μg/mL) E. faecalis [1]: 0.5 µg/mL (≈ 0.592 µM)
- MIC (μg/mL) S. aureus [2]: 0.015 µg/mL (≈ 0.0178 µM)
- MIC (μg/mL) E coli [3]: >8 µg/mL
- MIC (μg/mL) H. flu [4]: 0.5 µg/mL (≈ 0.592 µM)
- MIC (μg/mL) S. pneumo. [5]: 0.002 µg/mL (≈ 0.00237 µM)

Compound: COC1C=COC2(C)Oc3c(C)c(O)c4c(=O)c(c5sc6cc(N7CC(C)NC(C)C7)ccc6nc-5c4c3C2=O)NC(=O)C(C)=CC=CC(C)C(O)C(C)C(O)C(C)C(O)C1C [Compound 65, 25-O-deacetyl-5′-[(3R,5S)-3,5-dimethyl-1-piperazinyl]benzthiazinorifamycin]
- MIC (μg/mL) E. faecalis [1]: 0.12 µg/mL (≈ 0.138 µM)
- MIC (μg/mL) S. aureus [2]: 0.002 µg/mL (≈ 0.0023 µM)
- MIC (μg/mL) E coli [3]: 2 µg/mL (≈ 2.3 µM)
- MIC (μg/mL) H. flu [4]: 0.12 µg/mL (≈ 0.138 µM)
- MIC (μg/mL) S. pneumo. [5]: 0.00025 µg/mL (≈ 0.000287 µM)

Compound: COC1C=COC2(C)Oc3c(C)c(O)c4c(=O)c(c5oc6cc(N7CC8C(N)C8C7)cc(O)c6nc-5c4c3C2=O)NC(=O)C(C)=CC=CC(C)C(O)C(C)C(O)C(C)C(OC(C)=O)C1C [Compound 4, 3′-hydroxy-5′-[6-amino-(1R,5S)-3-azabicyclo[3.1.0]hex-3-yl]benzoxazinorifamycin]
- MIC (μg/mL) E. faecalis [1]: 0.5 µg/mL (≈ 0.557 µM)
- MIC (μg/mL) S. aureus [2]: 0.03 µg/mL (≈ 0.0334 µM)
- MIC (μg/mL) E coli [3]: >8 µg/mL
- MIC (μg/mL) H. flu [4]: 0.25 µg/mL (≈ 0.279 µM)
- MIC (μg/mL) S. pneumo. [5]: 0.00025 µg/mL (≈ 0.000279 µM)

Compound: COC1C=COC2(C)Oc3c(C)c(O)c4c(=O)c(c5sc6cc(N7CCN8CCCC8C7)ccc6nc-5c4c3C2=O)NC(=O)C(C)=CC=CC(C)C(O)C(C)C(O)C(C)C(O)C1C [Compound 77, 25-O-deacetyl-5′-[(8aS)octahydropyrrolo[1,2-a]pyrazin-2-yl]benzthiazinorifamycin]
- MIC (μg/mL) E. faecalis [1]: 0.25 µg/mL (≈ 0.283 µM)
- MIC (μg/mL) S. aureus [2]: 0.002 µg/mL (≈ 0.00226 µM)
- MIC (μg/mL) E coli [3]: 2 µg/mL (≈ 2.26 µM)
- MIC (μg/mL) H. flu [4]: 0.12 µg/mL (≈ 0.136 µM)
- MIC (μg/mL) S. pneumo. [5]: 0.00025 µg/mL (≈ 0.000283 µM)

Compound: COC1C=COC2(C)Oc3c(C)c(O)c4c(=O)c(c5oc6cc(N7CCN(CC8CC8)CC7)cc(O)c6nc-5c4c3C2=O)NC(=O)C(C)=CC=CC(C)C(O)C(C)C(O)C(C)C(O)C1C (stereo not shown) [Compound 96]
- MIC (μg/mL) E. faecalis [1]: 0.06 µg/mL (≈ 0.0669 µM)
- MIC (μg/mL) S. aureus [2]: 0.008 µg/mL (≈ 0.00892 µM)
- MIC (μg/mL) E coli [3]: 2 µg/mL (≈ 2.23 µM)
- MIC (μg/mL) H. flu [4]: 0.25 µg/mL (≈ 0.279 µM)
- MIC (μg/mL) S. pneumo. [5]: 0.0005 µg/mL (≈ 0.000557 µM)

Compound: COC1C=COC2(C)Oc3c(C)c(O)c4c(=O)c(c5oc6cc(N7CCN(c8ccccc8)CC7)cc(O)c6nc-5c4c3C2=O)NC(=O)C(C)=CC=CC(C)C(O)C(C)C(O)C(C)C(O)C1C (stereo not shown) [Compound 99]
- MIC (μg/mL) E. faecalis [1]: 0.06 µg/mL (≈ 0.0653 µM)
- MIC (μg/mL) S. aureus [2]: 0.004 µg/mL (≈ 0.00435 µM)
- MIC (μg/mL) E coli [3]: 4 µg/mL (≈ 4.35 µM)
- MIC (μg/mL) H. flu [4]: 0.25 µg/mL (≈ 0.272 µM)
- MIC (μg/mL) S. pneumo. [5]: 0.001 µg/mL (≈ 0.00109 µM)

Compound: CCOC(=O)NC1CCN(c2ccc3nc4c5c6c7c(C)c(O)c5c(=O)c(c-4n(C)c3c2)NC(=O)/C(C)=C\C=C\[C@H](C)[C@H](O)[C@@H](C)[C@@H](O)[C@@H](C)[C@H](O)[C@H](C)[C@@H](OC)/C=C/O[C@@](C)(O7)C6=O)CC1 [Compound 31]
- MIC (μg/mL) E. faecalis [1]: 0.25 µg/mL (≈ 0.27 µM)
- MIC (μg/mL) S. aureus [2]: 0.03 µg/mL (≈ 0.0324 µM)
- MIC (μg/mL) E coli [3]: 8 µg/mL (≈ 8.64 µM)
- MIC (μg/mL) H. flu [4]: 0.25 µg/mL (≈ 0.27 µM)
- MIC (μg/mL) S. pneumo. [5]: 0.0005 µg/mL (≈ 0.00054 µM)
